In ChEMBL document CHEMBL1201862, “PubChem BioAssay data set” (2004):
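Step 1: Grow cells in 96-well plates. Step 2: Expose to compound for 48 hours at 5 concentrations. Step 3: Interpolate endpoints linearly; if unreached, use highest concentration. Here, GI50 denotes the concentration required for 50% inhibition of growth.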 Calls of active or inactive are those of the source. No stated cut-off is given here; in the data, active = GI50 up to about 1.1 µM and inactive = higher.

Key:
Assay in all cases: NCI tumour cell line growth inhibition, 48 h
HCC 2998 = system: HCC 2998
A498 = system: A498
TK-10 = system: TK-10
MDA-MB-435 = system: MDA-MB-435
Hs-578T = system: Hs-578T
OVCAR-3 = system: OVCAR-3
SF-539 = system: SF-539
RXF 393 = system: RXF 393
HL-60 = system: HL-60
HOP-92 = system: HOP-92
SNB-75 = system: SNB-75
Malme-3M = system: Malme-3M
NCI-H460 = system: NCI-H460
NCI-H23 = system: NCI-H23
HCT-116 = system: HCT-116
NCI-H226 = system: NCI-H226
IGROV-1 = system: IGROV-1
UO-31 = system: UO-31
RPMI-8226 = system: RPMI-8226
UACC-62 = system: UACC-62

N#Cc1cc2c(cc1Cl)Sc1nnc(Nc3ccccc3)n1S2(=O)=O
GI50 (HCC 2998): 1.55 µM (inactive)
GI50 (A498): 8.32 µM (inactive)
GI50 (TK-10): 4.22 µM (inactive)
GI50 (MDA-MB-435): 2.08 µM (inactive)
GI50 (Hs-578T): 2.3 µM (inactive)
GI50 (OVCAR-3): 1.64 µM (inactive)
GI50 (SF-539): 2.07 µM (inactive)
GI50 (RXF 393): 1.73 µM (inactive)
GI50 (HL-60): 3.05 µM (inactive)
GI50 (HOP-92): 0.798 µM (active)
GI50 (SNB-75): 3.4 µM (inactive)
GI50 (Malme-3M): 2.19 µM (inactive)
GI50 (NCI-H460): 2.71 µM (inactive)
GI50 (NCI-H23): 1.62 µM (inactive)
GI50 (HCT-116): 2.04 µM (inactive)
GI50 (NCI-H226): 2.24 µM (inactive)
GI50 (IGROV-1): 2.2 µM (inactive)
GI50 (UO-31): 1.78 µM (inactive)
GI50 (RPMI-8226): 0.692 µM (active)
GI50 (UACC-62): 1.83 µM (inactive)

OCCOc1ccccc2cccc1-2
GI50 (HCC 2998): > 100 µM (inactive)
GI50 (A498): > 100 µM (inactive)
GI50 (TK-10): > 100 µM (inactive)
GI50 (MDA-MB-435): > 100 µM (inactive)
GI50 (Hs-578T): > 100 µM (inactive)
GI50 (OVCAR-3): > 100 µM (inactive)
GI50 (SF-539): > 100 µM (inactive)
GI50 (HL-60): > 100 µM (inactive)
GI50 (HOP-92): > 100 µM (inactive)
GI50 (SNB-75): > 100 µM (inactive)
GI50 (Malme-3M): > 100 µM (inactive)
GI50 (NCI-H460): 73.6 µM (inactive)
GI50 (NCI-H23): > 100 µM (inactive)
GI50 (HCT-116): > 100 µM (inactive)
GI50 (NCI-H226): > 100 µM (inactive)
GI50 (IGROV-1): > 100 µM (inactive)
GI50 (UO-31): > 100 µM (inactive)
GI50 (RPMI-8226): 61.8 µM (inactive)
GI50 (UACC-62): > 100 µM (inactive)

CCN(CCCl)c1cccc(NC(=O)c2ccc(C(=O)Nc3cccc(CN(C)C)c3)cc2)c1
GI50 (HCC 2998): 0.123 µM (active)
GI50 (A498): 0.136 µM (active)
GI50 (TK-10): 0.372 µM (active)
GI50 (MDA-MB-435): 0.0243 µM (active)
GI50 (Hs-578T): 0.0618 µM (active)
GI50 (SF-539): 0.244 µM (active)
GI50 (RXF 393): < 0.01 µM (active)
GI50 (HL-60): 0.0292 µM (active)
GI50 (HOP-92): 0.144 µM (active)
GI50 (SNB-75): 0.207 µM (active)
GI50 (Malme-3M): 0.049 µM (active)
GI50 (NCI-H460): 0.0537 µM (active)
GI50 (NCI-H23): 0.0935 µM (active)
GI50 (HCT-116): 0.0611 µM (active)
GI50 (NCI-H226): 0.219 µM (active)
GI50 (IGROV-1): 0.0344 µM (active)
GI50 (UO-31): 0.475 µM (active)
GI50 (RPMI-8226): 0.267 µM (active)
GI50 (UACC-62): 0.0785 µM (active)

Cc1cc(CS(=O)(=O)/C=C/c2ccccc2[N+](=O)[O-])c(CS(=O)(=O)/C=C/c2ccccc2[N+](=O)[O-])cc1C
GI50 (HCC 2998): > 85.3 µM (inactive)
GI50 (A498): 26.5 µM (inactive)
GI50 (TK-10): 35.4 µM (inactive)
GI50 (MDA-MB-435): > 41.9 µM (inactive)
GI50 (Hs-578T): 3.44 µM (inactive)
GI50 (OVCAR-3): 49.1 µM (inactive)
GI50 (SF-539): 14.4 µM (inactive)
GI50 (RXF 393): 10.3 µM (inactive)
GI50 (HL-60): > 79.4 µM (inactive)
GI50 (HOP-92): 33.2 µM (inactive)
GI50 (SNB-75): 5.27 µM (inactive)
GI50 (Malme-3M): 28 µM (inactive)
GI50 (NCI-H460): 33.8 µM (inactive)
GI50 (NCI-H23): 17.7 µM (inactive)
GI50 (HCT-116): 37 µM (inactive)
GI50 (NCI-H226): 19 µM (inactive)
GI50 (IGROV-1): 30.8 µM (inactive)
GI50 (UO-31): > 82 µM (inactive)
GI50 (RPMI-8226): 9.42 µM (inactive)
GI50 (UACC-62): 23.6 µM (inactive)

Cc1cc([C@H](C#N)c2nc3ccccc3[nH]2)nc(Cl)n1
GI50 (HCC 2998): 20.3 µM (inactive)
GI50 (A498): 41.8 µM (inactive)
GI50 (TK-10): 61.1 µM (inactive)
GI50 (MDA-MB-435): 30.4 µM (inactive)
GI50 (Hs-578T): > 100 µM (inactive)
GI50 (SF-539): 61.9 µM (inactive)
GI50 (RXF 393): 33.3 µM (inactive)
GI50 (HL-60): 19.2 µM (inactive)
GI50 (HOP-92): 20.1 µM (inactive)
GI50 (SNB-75): 31 µM (inactive)
GI50 (Malme-3M): 77.3 µM (inactive)
GI50 (NCI-H460): 24.5 µM (inactive)
GI50 (NCI-H23): 30.1 µM (inactive)
GI50 (HCT-116): 37.8 µM (inactive)
GI50 (NCI-H226): 48 µM (inactive)
GI50 (IGROV-1): 54.5 µM (inactive)
GI50 (UO-31): 35.6 µM (inactive)
GI50 (RPMI-8226): 5.65 µM (inactive)
GI50 (UACC-62): 22.3 µM (inactive)

Cn1c(=O)c2c(nc3n(CCCCl)c(=O)ccn23)n(C)c1=O
GI50 (HCC 2998): > 100 µM (inactive)
GI50 (A498): > 100 µM (inactive)
GI50 (TK-10): > 100 µM (inactive)
GI50 (MDA-MB-435): > 100 µM (inactive)
GI50 (Hs-578T): > 100 µM (inactive)
GI50 (OVCAR-3): > 100 µM (inactive)
GI50 (SF-539): > 100 µM (inactive)
GI50 (RXF 393): > 100 µM (inactive)
GI50 (HL-60): > 100 µM (inactive)
GI50 (HOP-92): > 100 µM (inactive)
GI50 (SNB-75): > 100 µM (inactive)
GI50 (NCI-H460): > 100 µM (inactive)
GI50 (NCI-H23): > 100 µM (inactive)
GI50 (HCT-116): > 100 µM (inactive)
GI50 (NCI-H226): > 100 µM (inactive)
GI50 (IGROV-1): > 100 µM (inactive)
GI50 (UO-31): > 100 µM (inactive)
GI50 (RPMI-8226): > 100 µM (inactive)
GI50 (UACC-62): > 100 µM (inactive)

CC(=O)O[C@H]1CC[C@H]2[C@@H]3CCC4C(C)=NNC(=O)C4[C@H]3CC[C@]12C (stereo not given in full)
GI50 (HCC 2998): > 100 µM (inactive)
GI50 (A498): 37.2 µM (inactive)
GI50 (TK-10): > 76.6 µM (inactive)
GI50 (MDA-MB-435): > 100 µM (inactive)
GI50 (Hs-578T): 17.8 µM (inactive)
GI50 (OVCAR-3): > 100 µM (inactive)
GI50 (SF-539): 65.9 µM (inactive)
GI50 (RXF 393): 56.6 µM (inactive)
GI50 (HL-60): > 100 µM (inactive)
GI50 (HOP-92): 37.9 µM (inactive)
GI50 (SNB-75): 14.2 µM (inactive)
GI50 (Malme-3M): 99.8 µM (inactive)
GI50 (NCI-H460): > 100 µM (inactive)
GI50 (NCI-H23): > 60.7 µM (inactive)
GI50 (HCT-116): > 73.5 µM (inactive)
GI50 (NCI-H226): 39.5 µM (inactive)
GI50 (IGROV-1): 27 µM (inactive)
GI50 (UO-31): > 100 µM (inactive)
GI50 (RPMI-8226): > 100 µM (inactive)
GI50 (UACC-62): > 100 µM (inactive)

c1ccc2c(c1)SCCC2NC1=NCCO1 (stereo not given)
GI50 (HCC 2998): > 100 µM (inactive)
GI50 (A498): > 100 µM (inactive)
GI50 (TK-10): > 100 µM (inactive)
GI50 (MDA-MB-435): > 100 µM (inactive)
GI50 (Hs-578T): > 100 µM (inactive)
GI50 (OVCAR-3): > 100 µM (inactive)
GI50 (SF-539): > 100 µM (inactive)
GI50 (RXF 393): > 100 µM (inactive)
GI50 (HL-60): > 100 µM (inactive)
GI50 (SNB-75): > 100 µM (inactive)
GI50 (Malme-3M): > 100 µM (inactive)
GI50 (NCI-H460): > 100 µM (inactive)
GI50 (NCI-H23): > 100 µM (inactive)
GI50 (HCT-116): > 100 µM (inactive)
GI50 (NCI-H226): > 100 µM (inactive)
GI50 (IGROV-1): > 100 µM (inactive)
GI50 (UO-31): > 100 µM (inactive)
GI50 (RPMI-8226): > 100 µM (inactive)
GI50 (UACC-62): > 100 µM (inactive)

COc1ccc2c(c1)[nH]c1c(/C=C/c3ccccc3)nccc12
GI50 (HCC 2998): 13 µM (inactive)
GI50 (A498): 12.3 µM (inactive)
GI50 (TK-10): 19.4 µM (inactive)
GI50 (MDA-MB-435): 16.2 µM (inactive)
GI50 (Hs-578T): 19 µM (inactive)
GI50 (OVCAR-3): 13.6 µM (inactive)
GI50 (SF-539): 13 µM (inactive)
GI50 (RXF 393): 14.8 µM (inactive)
GI50 (HL-60): 19.1 µM (inactive)
GI50 (HOP-92): 18.6 µM (inactive)
GI50 (SNB-75): 12.3 µM (inactive)
GI50 (Malme-3M): 15.9 µM (inactive)
GI50 (NCI-H460): 13.2 µM (inactive)
GI50 (NCI-H23): 15.3 µM (inactive)
GI50 (HCT-116): 12.1 µM (inactive)
GI50 (NCI-H226): 17.4 µM (inactive)
GI50 (IGROV-1): 14.7 µM (inactive)
GI50 (UO-31): 10.4 µM (inactive)
GI50 (RPMI-8226): 13.3 µM (inactive)
GI50 (UACC-62): 14.5 µM (inactive)

CCOC(=O)Nc1cc2c(c(N)n1)N=C(c1ccc(Cl)cc1Cl)CN2
GI50 (HCC 2998): 0.0995 µM (active)
GI50 (A498): 2.68 µM (inactive)
GI50 (TK-10): 3.78 µM (inactive)
GI50 (MDA-MB-435): < 0.01 µM (active)
GI50 (Hs-578T): < 0.0143 µM (active)
GI50 (OVCAR-3): 0.0109 µM (active)
GI50 (SF-539): < 0.0173 µM (active)
GI50 (RXF 393): < 0.01 µM (active)
GI50 (HL-60): 0.0132 µM (active)
GI50 (HOP-92): 17.3 µM (inactive)
GI50 (SNB-75): < 0.01 µM (active)
GI50 (Malme-3M): < 0.0178 µM (active)
GI50 (NCI-H460): < 0.0154 µM (active)
GI50 (NCI-H23): 0.0834 µM (active)
GI50 (HCT-116): < 0.01 µM (active)
GI50 (NCI-H226): 0.0314 µM (active)
GI50 (IGROV-1): 0.292 µM (active)
GI50 (UO-31): 0.052 µM (active)
GI50 (RPMI-8226): < 0.01 µM (active)
GI50 (UACC-62): < 0.0105 µM (active)
